For orientation: mortality means the percentage killed. A high value points to fewer survivors. As a reminder, the ED50 is the midpoint of the dose-response relation. Low values mean greater potency, high ones weaker potency. In general, IC50 refers to the midpoint of a concentration-inhibition curve. A low value points to greater potency.

Several values for one entry are separate records, joined by “and”; a condition that tells them apart may be missing. Identical values can stand only once. Counter-ions that a name gives are not always drawn.

Experiment [1] can be described thus: Antiischemic effect on bilateral (carotid) artery ligation model, mortality. The experiment is classed as in vivo, mice. To be noted: for mortality at 2 mg/kg / ED50: Mus musculus, ip; for mortality at 2 mg/kg: 24 h, 30 minutes before 5-minute bilateral carotid ligation, control mortality 70%; for mortality at 2 mg/kg / antiischemic activity, in words: 2 mg/kg i.p.; for ED50: dose diminishing the mortality by 50% in comparison to the untreated control group; for antiischemic activity, in words: bilateral artery ligation, mice. As to the method: 1. Antiischemic Effect (On Bilateral Artery Ligation Model)
N. Himori et al.: Cerebral ischemia model with conscious mice involvement of NMDA receptor activation and derangement of learning and memory ability [J. Pharmacol. Meth. 23, 311-327 (1990)].
Carotid arteries of mice (weighing 30 to 32 g each) were exposed bilaterally under anaesthesia by 450 mg/kg of intraperitoneal (i.p.) chloral hydrate. The sympathetic and vagal nerves were separated and a loose ligation was bilaterally placed below the carotid arteries. Both ends of the ligation were led out on the back, behind the ears. Next day, in conscious state both ends of the ligation were pulled resulting in the stopping of blood supply through the carotid arteries. This was maintained for 5 minutes, then released to provide the reperfusion. The number of animals died during the 5-minute period and the following 24 hours were registered. The calculation of significance was performed by the chi^2 test. The pre-treatment with the compound was carried out intraperitoneally (i.p.) 30 minutes before the ligation.
The transient dramatic decrease in the cerebral blood supply, then the starting of reperfusion after stopping the ligation leads to the formation of extremely toxic oxygen free radicals (superoxide radical, hydrogen peroxide). […] [ED50 is the dose (as mg/kg) diminishing the mortality by 50% in comparison to the untreated is control group].

The test system of experiment [2] is Fe^2+ -Induced Lipid Peroxidation in Brain Homogenate. As to the kind of experiment: Fe^2+-induced (non-enzymatic) lipid peroxidation in brain homogenate (ANI). To be noted: for IC50: Fe^2+-induced lipid peroxidation, rat brain homogenate, 37° C., 20 minutes, pH 7.4; for antioxidant activity in Fe^2+-induced lipid peroxidation, in words: comparison with idebenone, DL-α-tocopherol or silymarin. The experiment is classed as biochemical, rat (Hannover-Wistar).
Description: Effect on the Fe^2+ -Induced Lipid Peroxidation in Brain Homogenate
After decapitating Hannover-Wistar rats weighing 150-220 g each, the whole brain was homogenized in 9 volumes of ice-cold Krebs-Ringer's buffer containing 15 mM HEPES, (4-(2-hydroxyethyl)-1-piperazinylethanesulfonic acid) (pH 7.4), 140 mM NaCl7 3.6 mM KCl, 1.5 mM CaCl2, 0.7 mM MgCl2, 1.4 mM KH2 PO4 and 10 glucose. Then the protein content of the solution was determined and adjusted to 10 mg/ml concentration.
After adding the inhibitory agent to be tested in a volume of 5 μl to 200 μl of the homogenate, the incubation mixture was incubated at 37° C. for 20 minutes. The Fe^2+ -induced lipid peroxidation was accomplished by adding 5 μl of 8 mM Fe2 (NH4)2 (SO4)2 solution. After passing of the incubation time, the reaction was stopped by adding 1 ml of a stopping solution containing 0.8 M HCl and 12.5% trichloroacetic acid, then the samples were centrifuged at 2000 g in a Janetzki K70 apparatus at 4° C. for 10 minutes.
To a 0.5 ml portion of the supernatant, 1 ml of 1% thiobarbituric acid solution was added, then the samples were placed in a water bath of 100° C. for 20 minutes. The color intensity developed was determined at 535 nm with a Hitachi 150-20 spectrophotometer by using malondialdehyde bis(diethylacetal) as reference compound.
ANI: non-enzymatically (Fe^2+) induced lipid peroxidation test

Experiment [3] deals with NADPH-Induced Lipid Peroxidation in Brain Microsomes. As to the kind of experiment: NADPH-induced (enzymatic) lipid peroxidation in brain microsomes (AEI). The experiment is classed as biochemical, rat (male Hannover-Wistar). To be noted: for IC50: NADPH-induced lipid peroxidation, rat brain microsomes, 37° C., 20 minutes, pH 6.8; for inhibition of NADPH-induced lipid peroxidation relative to silymarin (times as strongly): compared with silymarin; for antioxidant effect in NADPH-induced lipid peroxidation, in words: comparison with reference compounds.
Description: Effect on the NADPH-Induced Lipid Peroxidation in Brain Microsomes
Male Hannover-Wistar rats with a body weight of 150-250 g were used for the preparation of microsomes. After decapitation, the whole brain was removed and homogenized in a 10-fold volume of ice-cold 0.25 M saccharose solution. The homogenate was centrifuged in a Hitachi CR 26H equipment at 15000 g at 4° C. for 10 minutes, then the supernatant was collected and centrifuged in a Hitachi SCP 85H apparatus at 78000 g at 4° C. for 60 minutes. After suspending the precipitate in 0.15 M KCl solution, the protein content of the obtained solution was determined and then adjusted to 10 mg/ml concentration. The microsome thus obtained was frozen in a dry ice-acetone mixture and stored at -70° C. until use. The components of the incubation mixture were: 50 mM TRIS-HCl (pH 6.8), 0.2 mM FeCl3, 1 mM KH2 PO4, 0.5 mM ADP, 0.2 mg of microsomes as well as the compound to be tested. The incubation was carried out with a final volume of 1 ml and with an incubation time of 20 minutes at a temperature of 37° C. The lipid peroxidation was induced by adding 0.4 mM NADPH.
The formation of malondialdehyde was determined by using thiobarbituric acid. After stopping the reaction, 1 ml of 1% thiobarbituric acid solution each was weighed to the samples, which were then placed in a water bath of about 100° C. for 10 minutes. Subsequently, the samples were centrifuged at 2000 g in a Janetzki K70 apparatus at 4° C. for 10 minutes. The absorbance values of the colored supernatant were measured at 535 nm in a Hitachi 150-20 spectrophotometer. Malondialdehyde bis(diethylacetal) was used as reference compound.

Experiment [4] in a line: Diazepam-induced anterograde amnesia (passive avoidance). The experiment is classed as in vivo, NMRI mice. To be noted: for Inhibition of the diazepam-induced amnesia %: 1 hour before learning, diazepam 3 mg/kg i.p.; for antiamnesic activity, in words: diazepam-induced anterograde amnesia, 0.1 and 10 mg/kg p.o. From the text:
2. Diazepam-Induced Anterograde Amnesia C. L. Broekkamp et al.: The comparative effects of benzodiazepines, progabide and PK 9084 on acquisition of passive avoidance in mice [Psychopharmacology (Berlin) 83, 122-125 (1984)]. The memory test was accomplished on NMRI mice weighing 25 to 28 g each by using the passive avoidance, a method based on the genetically determined nyctophilic behavior of rodents. During the learning period, the pre-selected animals (mice entering the dark space from the illuminated space within 30 seconds) were placed in an illuminated space. After entering the dark space, the animal received an electric shock (1 mA for […]) onto its planta within 30 seconds, then the time until entry to the dark space (latency period) was registered. After 24 hours, the animals were placed again in the illuminated space and the time until crossing over to the dark space (retention time=T with a time limit of 300 seconds) was measured. For inducing an anterograde amnesia, the animals were treated intraperitoneally with 3 mg/kg of diazepam 30 minutes before learning. The compounds were administered orally in 0.1 or 10 mg/kg doses, respectively 1 hour before learning. [formula]

As to `Cc1c(C)c2c(c(C)c1O)CCC(C)(CCCC(C)CCCC(C)CCCC(C)C)O2` (racemic) [Vitamin E, 2,5,7,8-tetramethyl-2-(4',8',12'-trimethyltridecyl)-6-chromanol, reference compound], in experiment [1], the mortality at 2 mg/kg was 70%; the 50% effect level (ED50) was put at a dose of 17.8 mg/kg; the “antiischemic activity, in words” value was “less active in the same dose”. In addition, inhibition in experiment [2] was half-maximal at 12.1 µM (IC50). The compound also showed an IC50 in experiment [3] of 406 µM.
Consider `CC[C@@]12C=C(C(=O)OCCO)n3c4c(c5ccccc53)CCN(CCC1)[C@@H]42` [Compound 1010885, (-)-trans apovincaminic acid 2-hydroxyethyl ester(3β,16α)], for which the mortality at 2 mg/kg in experiment [1] was found to be 60%. In experiment [2], the IC50 is 15.5 µM and the “antioxidant activity in Fe^2+-induced lipid peroxidation, in words” value (“antioxidant activity” below) is “more strongly than idebenone”. In addition, the “Inhibition of the diazepam-induced amnesia %” value in experiment [4] (0.1 mg/kg p.o.) stood at 74%. In experiment [4] (10.0 mg/kg p.o.), the “Inhibition of the diazepam-induced amnesia %” value was determined as 65%. Further, in experiment [3], half-maximal inhibition (IC50) was put at 9.7 µM and the “inhibition of NADPH-induced lipid peroxidation relative to silymarin (times as strongly)” value is given as “about 20 times”.
`CC[C@]12C=C(C(=O)OCCOC(C)=O)n3c4c(c5ccccc53)CCN(CCC1)[C@H]42` [Compound 1010886, (+)-trans apovincaminic acid 2-(acetoxy)ethyl ester(3α,16β)hydrochloride]: the IC50 is 7.7 µM and < 10 µM in experiment [2]; 7.6 µM and < 10 µM in experiment [3]. Moreover, the “antioxidant activity” value in experiment [2] was “about twice as active as idebenone or DL-α-tocopherol”. Further, the “Inhibition of the diazepam-induced amnesia %” value in experiment [4] (0.1 mg/kg p.o.) was 72%; in experiment [4] (10.0 mg/kg p.o.), 44%. The “antiamnesic activity, in words” value in experiment [4] is recorded as “particularly effective”. Also, in experiment [3], the “inhibition of NADPH-induced lipid peroxidation relative to silymarin (times as strongly)” value is on record as “about 20 times”.
Take `CC[C@]12C=C(C(=O)OCCO)n3c4c(c5ccccc53)CCN(CCC1)[C@H]42` [Compound 1010887, (+)-trans apovincaminic acid 2-hydroxyethyl ester(3α,16β)]: in experiment [2], the midpoint of inhibition, the IC50, lay at 7.2 µM and the “antioxidant activity” value was “about twice as active as idebenone or DL-α-tocopherol”. Besides, in experiment [4] (0.1 mg/kg p.o.), the “Inhibition of the diazepam-induced amnesia %” value was 50%. The “Inhibition of the diazepam-induced amnesia %” value in experiment [4] (10.0 mg/kg p.o.) is 56%. For the same compound, in experiment [4], the “antiamnesic activity, in words” value was “particularly effective”. Further, in experiment [3], the IC50 is 12.6 µM and the “inhibition of NADPH-induced lipid peroxidation relative to silymarin (times as strongly)” value is on record as “about 20 times”.
In the case of `CC[C@@]12C=C(C(=O)OCCOC(=O)c3ccccc3)n3c4c(c5ccccc53)CCN(CCC1)[C@@H]42` [Compound 1010960, (-)-trans apovincaminic acid 2-(benzoyloxy)ethyl ester(3β,16α)hydrochloride], the mortality at 2 mg/kg in experiment [1] was in the range of 10 to 30%. In experiment [2], the IC50 was 5.7 µM and < 10 µM; the “antioxidant activity” value was “about twice as active as idebenone or DL-α-tocopherol”. The “Inhibition of the diazepam-induced amnesia %” value in experiment [4] (0.1 mg/kg p.o.) was found to be 0%. For the same compound, in experiment [4] (10.0 mg/kg p.o.), the “Inhibition of the diazepam-induced amnesia %” value is reported as 0%. Besides, in experiment [3], the IC50 was 7.4 µM and < 10 µM; the “inhibition of NADPH-induced lipid peroxidation relative to silymarin (times as strongly)” value was “about 20 times”.
With `CC[C@@]12C=C(C(=O)OCCOC(=O)c3ccc(Cl)cc3)n3c4c(c5ccccc53)CCN(CCC1)[C@@H]42` [Compound 1010961, (-)-trans apovincaminic acid 2-(4-chlorobenzoyloxy)ethyl ester(3β,16α)methanesulfonate], the mortality at 2 mg/kg in experiment [1] is 60%. In experiment [2], the IC50 is 5.3 µM and < 10 µM; the “antioxidant activity” value is recorded as “about twice as active as idebenone or DL-α-tocopherol”. Besides, the “Inhibition of the diazepam-induced amnesia %” value in experiment [4] (0.1 mg/kg p.o.) was 3%. Moreover, the “Inhibition of the diazepam-induced amnesia %” value in experiment [4] (10.0 mg/kg p.o.) is 15%. Besides, in experiment [3], the half-maximal inhibitory concentration (IC50) was 5.9 µM and < 10 µM; the “antioxidant effect in NADPH-induced lipid peroxidation, in words” value (shortened to “antioxidant effect”) is recorded as “comparable to that of idebenone”.
In experiment [1], `CCC(=O)OCCOC(=O)C1=C[C@]2(CC)CCCN3CCc4c(n1c1ccccc41)[C@H]32` [Compound 1010962, (-)-trans apovincaminic acid 2-(propionyloxyethyl)ester(3β,16α)hydrochloride] registered a mortality at 2 mg/kg of 40%. Further, in experiment [2], the IC50 is 5.7 µM and < 10 µM; the “antioxidant activity” value is “about twice as active as idebenone or DL-α-tocopherol”. Moreover, the “Inhibition of the diazepam-induced amnesia %” value in experiment [4] (0.1 mg/kg p.o.) is listed as 16%. Further, in experiment [4] (10.0 mg/kg p.o.), the “Inhibition of the diazepam-induced amnesia %” value was 4%. Further, in experiment [3], the IC50 is 7.5 µM and < 10 µM; the “inhibition of NADPH-induced lipid peroxidation relative to silymarin (times as strongly)” value is reported as “about 20 times”.
With `CC[C@@]12C=C(C(=O)OCCOC(=O)c3cc(OC)c(OC)c(OC)c3)n3c4c(c5ccccc53)CCN(CCC1)[C@@H]42` [Compound 1011005, (-)-trans apovincaminic acid 2-(3,4,5-trimethoxybenzoyloxy)-ethyl ester(3β,16α)hydrochloride], the mortality at 2 mg/kg in experiment [1] was determined as 70%. The same compound registered a half-inhibitory concentration (IC50) in experiment [2] of 11.9 µM. Besides, in experiment [3], the IC50 was found to be 10.3 µM and the “inhibition of NADPH-induced lipid peroxidation relative to silymarin (times as strongly)” value is on record as “about 20 times”.
`CC[C@]12C=C(C(=O)OCCOC(=O)c3ccc(Cl)cc3)n3c4c(c5ccccc53)CCN(CCC1)[C@H]42` [Compound 1011037, (+)-trans apovincaminic acid 2-(4-chloro-benzoyloxy)-ethyl ester(3α,16β)methanesulfonate] had a mortality at 2 mg/kg in experiment [1] of 50%. The IC50 in experiment [2] amounted to 11.4 µM. In experiment [3], it took 3.2 µM to reach half-maximal inhibition (IC50) and the “antioxidant effect” value was “comparable to that of idebenone”.
As to `CC[C@]12C=C(C(=O)OCCOC(=O)c3cc(OC)c(OC)c(OC)c3)n3c4c(c5ccccc53)CCN(CCC1)[C@H]42` [Compound 1011047, (+)-trans apovincaminic acid 2-(3,4,5-trimethoxybenzoyloxy)ethyl ester(3α,16β)], in experiment [1], the mortality at 2 mg/kg worked out at 50%. Also, in experiment [2], half-maximal inhibition (IC50) was put at 16.1 µM and the “antioxidant activity” value was “more strongly than idebenone”. Further, in experiment [3], it took 5.9 µM to reach half-maximal inhibition (IC50) and the “antioxidant effect” value is “comparable to that of idebenone”.
For the compound `CC[C@@]12C=C(C(=O)OCCOC(=O)c3cccs3)n3c4c(c5ccccc53)CCN(CCC1)[C@@H]42` [Compound 2705283, (-)-trans apovincaminic acid 2-(2-thiophenoyloxi)ethyl ester(3β,16α)monohydrochloride], in experiment [2], 6.8 µM corresponded to half-maximal inhibition (IC50) and the “antioxidant activity” value was “about twice as active as idebenone or DL-α-tocopherol”. In experiment [3], the concentration for half-maximal inhibition (IC50) was determined as 11.2 µM and the “inhibition of NADPH-induced lipid peroxidation relative to silymarin (times as strongly)” value is given as “about 20 times”.
Turning to `CC[C@@]12C=C(C(=O)OCCOC(=O)c3ccc([N+](=O)[O-])cc3)n3c4c(c5ccccc53)CCN(CCC1)[C@@H]42` [Compound 2705284, (-)-trans apovincaminic acid 2-(4-nitrobenzoyloxy)ethyl ester(3β,16α)], in experiment [2], the IC50 is 6.8 µM and the “antioxidant activity” value was “about twice as active as idebenone or DL-α-tocopherol”. The compound also had an IC50 in experiment [3] of 20.4 µM.
Consider `COC1=C(OC)C(=O)C(CCCCCCCCCCO)=C(C)C1=O` [Idebenone, 6-(10-hydroxydecyl)-2,3-dimethoxy-5-methyl-1,4-benzoquinone, reference compound], for which, in experiment [1], the mortality at 2 mg/kg stood at 40%; the ED50 came out at 4.5 mg/kg; the “antiischemic activity, in words” value is listed as “less active in the same dose”. Also, in experiment [2], the midpoint of inhibition, the IC50, lay at 18.9 µM. This compound also returned an IC50 in experiment [3] of 1.2 µM.
As to `CCOC(=O)C1=C[C@]2(CC)CCCN3CCc4c(n1c1ccccc41)[C@@H]32` [Vinpocetine, reference compound], the “Inhibition of the diazepam-induced amnesia %” value in experiment [4] (0.1 mg/kg p.o.) came to 0%; in experiment [4] (10.0 mg/kg p.o.), 123%.
As to “(-)-Bis-trans apovincaminic acid ethyleneglycol ester(3β,16β)dihydrochloride [Compound 1011008]”, in experiment [2], 21.2 µM corresponded to half-maximal inhibition (IC50) and the “antioxidant activity” value is “exceeded that of silymarin”. For the same compound, in experiment [3], the IC50 came out at 6 µM and the “antioxidant effect” value was “comparable to that of idebenone”.

The values above are taken from patent US6093720A, “Trans apovincaminic acid ester derivatives” (Richter Gedeon Vegyeszeti GmbH, priority 1995, dated 2000).
